Patent US10351576B2, “Fused tricyclic pyrazole derivatives useful for farnesoid X receptors” (NOVARTIS AG, priority 2015, dated 2019)

Biological target: T1, human Farnesoid X Receptor (FXR) ligand binding domain (GST-FXR LBD) (Homo sapiens, UniProt Q96RI1)
T1 construct: purchased Invitrogen
T1 sequence (Q96RI1 193-472 isoform Q96RI1-2): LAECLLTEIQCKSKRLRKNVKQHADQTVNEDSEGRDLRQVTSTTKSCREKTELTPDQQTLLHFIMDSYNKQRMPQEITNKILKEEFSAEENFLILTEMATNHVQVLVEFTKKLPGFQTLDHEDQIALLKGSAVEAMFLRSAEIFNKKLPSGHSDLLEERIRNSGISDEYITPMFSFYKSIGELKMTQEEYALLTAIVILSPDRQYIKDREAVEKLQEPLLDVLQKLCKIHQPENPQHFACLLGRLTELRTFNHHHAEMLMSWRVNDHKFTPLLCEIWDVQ
Assay: Human GST-FXR LBD co-activator interaction assay (FXR HTRF assay)
Type: biochemical
Conditions: ligand-dependent interaction of GST-FXR LBD with biotin-labeled SRC-1 peptide, response relative to GW4064, read-out: FXR coactivator interaction assay (HTRF)
Excerpt: Human GST-FXR LBD Co-Activator Interaction Assay
The FXR HTRF assay is a biochemical assay measuring the interaction between FXR and a coactivator protein (SRC1). The ligand-induced interaction with a coactivator protein is a critical step in transcriptional activation by FXR. Thus, this is an assay designed to measure FXR agonist activity of the test compounds.
Recombinant human Farnesoid X Receptor (FXR) ligand binding domain (amino acids 193-472) fused to glutathione S-transferase (GST) purified protein (GST-FXR LBD) was purchased (Invitrogen). The ligand-dependent interaction between GST-FXR LBD and a peptide derived from Steroid Receptor Coactivator-1 (SRC-1) was monitored by Fluorescence Resonance Energy Transfer (FRET). […] Test compounds (in DMSO solution) and detection reagents (anti-GST-Cryptate labeled antibody and Streptavidin-XL665 conjugate; CisBio) were added in assay buffer containing 50 mM KF. Plates are incubated at room temperature in the dark for 2.5 hrs before reading on an Envision (PerkinElmer) at 665 nm and 590 nm. The HTRF assay results were calculated from the 665 nm/590 nm ratio (ratio=(A665 nm/A590 nm)×10^4) and expressed in Delta F %=(Ratiosample−Rationegative)/Rationegative×100.
A negative control (without Streptavidin-XL665) was run with each assay and represented the background fluorescence. A reference FXR agonist, (E)-3-(2-chloro-4-((3-(2,6-dichlorophenyl)-5-isopropylisoxazol-4-yl)methoxy)styryl)benzoic acid (Compound GW4064), was included in each experiment as positive control. The efficacy of each test compound was compared to that of GW4064. At each concentration, the relative activity of the test compound was expressed as Response %=(Rsample−RDMSO)/(Rpositive−RDMSO), where Rsample is the HTRF response (expressed in Delta F %) for the test compound, Rpositive is the maximal response for GW4064 at saturating concentrations, and RDMSO is the response for DMSO control. The EC50 values were calculated using GraphPad Prism (GraphPad Software) using non-linear regression curve fit (log(agonist) vs. response—variable slope (four parameters)).

EC50 [nM] | Compound
2 | Cn1nc(C(=O)N(CC(=O)NCC2CC2)Cc2cccc(F)c2)c2c1-c1cc(Cl)ccc1OC2 [Compound 1, 8-chloro-N-(2-((cyclopropylmethyl)amino)-2-oxoethyl)-N-(3-fluorobenzyl)-1-methyl-1,4-dihydrochromeno[4,3-c]pyrazole-3-carboxamide]
3 | Cn1nc(C(=O)N(CC(=O)NCCC(F)(F)F)Cc2cccc(F)c2)c2c1-c1cc(Cl)ccc1OC2 [Compound 2, 2-(1-{8-chloro-1-methyl-1H,4H-chromeno[4,3-c]pyrazol-3-yl}-N-[(3-fluorophenyl)methyl]formamido)-N-(3,3,3-trifluoropropyl)acetamide]
1 | Cn1nc(C(=O)N(CC(=O)NCC2CC2)Cc2ccccc2F)c2c1-c1cc(Cl)ccc1OC2 [Compound 3, 2-(1-{8-chloro-1-methyl-1H,4H-chromeno[4,3-c]pyrazol-3-yl}-N-[(2-fluorophenyl)methyl]formamido)-N-(cyclopropylmethyl)acetamide]
11 | Cn1nc(C(=O)N(CC(=O)NCCC(F)(F)F)Cc2ccccc2F)c2c1-c1cc(Cl)ccc1OC2 [Compound 4, 2-(1-{8-chloro-1-methyl-1H,4H-chromeno[4,3-c]pyrazol-3-yl}-N-[(2-fluorophenyl)methyl]formamido)-N-(3,3,3-trifluoropropyl)acetamide]
13 | Cn1nc(C(=O)N(CC(=O)NCC2CC2)Cc2c(F)cccc2F)c2c1-c1cc(Cl)ccc1OC2 [Compound 5, 2-(1-{8-chloro-1-methyl-1H,4H-chromeno[4,3-c]pyrazol-3-yl}-N-[(2,6-difluorophenyl)methyl]formamido)-N-(cyclopropylmethyl)acetamide]
12 | Cn1nc(C(=O)N(CC(=O)NCC2CC2)Cc2cccc(F)c2F)c2c1-c1cc(Cl)ccc1OC2 [Compound 6, 2-(1-{8-chloro-1-methyl-1H,4H-chromeno[4,3-c]pyrazol-3-yl}-N-[(2,3-difluorophenyl)methyl]formamido)-N-(cyclopropylmethyl) acetamide]
18 | Cn1nc(C(=O)N(CC(=O)NCC2CCOC2)Cc2ccccc2F)c2c1-c1cc(Cl)ccc1OC2 (stereo not shown) [Compound 7, 2-(1-{8-chloro-1-methyl-1H,4H-chromeno[4,3-c]pyrazol-3-yl}-N-[(2-fluorophenyl)methyl]formamido)-N-(oxolan-3-ylmethyl) acetamide]
31 | Cn1nc(C(=O)N(CC(=O)NC2CC2)Cc2ccccc2F)c2c1-c1cc(Cl)ccc1OC2 [Compound 8, 2-(1-{8-chloro-1-methyl-1H,4H-chromeno[4,3-c]pyrazol-3-yl}-N-[(2-fluorophenyl)methyl]formamido)-N-cyclopropylacetamide]
3 | Cn1nc(C(=O)N(CC(=O)NCCF)Cc2cccc(F)c2)c2c1-c1cc(Cl)ccc1OC2 [Compound 9, 2-(1-{8-chloro-1-methyl-1H,4H-chromeno[4,3-c]pyrazol-3-yl}-N-[(3-fluorophenyl)methyl]formamido)-N-(2-fluoroethyl)acetamide]
21 | Cn1nc(C(=O)N(CC(=O)NC2CC2(F)F)Cc2cccc(F)c2)c2c1-c1cc(Cl)ccc1OC2 (stereo not shown) [Compound 10, 2-(1-{8-chloro-1-methyl-1H,4H-chromeno[4,3-c]pyrazol-3-yl}-N-[(3-fluorophenyl)methyl]formamido)-N-(2,2-difluorocyclopropyl)acetamide]
13 | Cn1nc(C(=O)N(CC(=O)NCCF)Cc2ccccc2F)c2c1-c1cc(Cl)ccc1OC2 [Compound 11, 2-(1-{8-chloro-1-methyl-1H,4H-chromeno[4,3-c]pyrazol-3-yl}-N-[(2-fluorophenyl)methyl]formamido)-N-(2-fluoroethyl)acetamide]
14 | Cn1nc(C(=O)N(CC(=O)NC2CCC2)Cc2cccc(F)c2)c2c1-c1cc(Cl)ccc1OC2 [Compound 12, 2-(1-{8-chloro-1-methyl-1H,4H-chromeno[4,3-c]pyrazol-3-yl}-N-[(3-fluorophenyl)methyl]formamido)-N-cyclobutylacetamide]
34 | CC(C)NC(=O)CN(Cc1cc(F)cc(F)c1)C(=O)c1nn(C)c2c1COc1ccc(Br)cc1-2 [Compound 13, 2-(1-{8-bromo-1-methyl-1H,4H-chromeno[4,3-c]pyrazol-3-yl}-N-[(3,5-difluorophenyl)methyl]formamido)-N-(propan-2-yl)acetamide]
58 | Cn1nc(C(=O)N(CC(=O)NC(C)(C)C)Cc2cccc(F)c2)c2c1-c1cc(Cl)ccc1OC2 [Compound 14, N-tert-butyl-2-(1-{8-chloro-1-methyl-1H,4H-chromeno[4,3-c]pyrazol-3-yl}-N-[(3-fluorophenyl)methyl]formamido)acetamide]
27 | CC(C)NC(=O)CN(Cc1cccc(F)c1)C(=O)c1nn(C)c2c1COc1ccc(Cl)cc1-2 [Compound 15, 2-(1-{8-chloro-1-methyl-1H,4H-chromeno[4,3-c]pyrazol-3-yl}-N-[(3-fluorophenyl)methyl]formamido)-N-(propan-2-yl)acetamide]
49 | CC(C)NC(=O)CN(Cc1cc(F)ccc1F)C(=O)c1nn(C)c2c1COc1ccc(Br)cc1-2 [Compound 16, 2-(1-{8-bromo-1-methyl-1H,4H-chromeno[4,3-c]pyrazol-3-yl}-N-[(2,5-difluorophenyl)methyl]formamido)-N-(propan-2-yl)acetamide]
54 | CCNC(=O)CN(Cc1ccccc1F)C(=O)c1nn(C)c2c1COc1ccc(Cl)cc1-2 [Compound 17, 2-(1-{8-chloro-1-methyl-1H,4H-chromeno[4,3-c]pyrazol-3-yl}-N-[(2-fluorophenyl)methyl]formamido)-N-ethylacetamide]
64 | Cn1nc(C(=O)N(CC(=O)NC2CCCC2)Cc2ccccc2F)c2c1-c1cc(Cl)ccc1OC2 [Compound 18, 2-(1-{8-chloro-1-methyl-1H,4H-chromeno[4,3-c]pyrazol-3-yl}-N-[(2-fluorophenyl)methyl]formamido)-N-cyclopentylacetamide]
49 | Cn1nc(C(=O)N(CC(=O)NC2CCC2)Cc2ccccc2F)c2c1-c1cc(Cl)ccc1OC2 [Compound 19, 2-(1-{8-chloro-1-methyl-1H,4H-chromeno[4,3-c]pyrazol-3-yl}-N-[(2-fluorophenyl)methyl]formamido)-N-cyclobutylacetamide]
246 | Cn1nc(C(=O)N(CC(=O)Nc2ccc(C(=O)N3CCOCC3)cc2)Cc2ccccc2F)c2c1-c1cc(Cl)ccc1OC2 [Compound 20, 2-(1-{8-chloro-1-methyl-1H,4H-chromeno[4,3-c]pyrazol-3-yl}-N-[(2-fluorophenyl)methyl]formamido)-N-[4-(morpholine-4-carbonyl)phenyl]acetamide]
160 | Cn1nc(C(=O)N(CC(=O)NC[C@@H]2CCCO2)Cc2ccccc2F)c2c1-c1cc(Cl)ccc1OC2 [Compound 21, 2-(1-{8-chloro-1-methyl-1H,4H-chromeno[4,3-c]pyrazol-3-yl}-N-[(2-fluorophenyl)methyl]formamido)-N-[(2S)-oxolan-2-ylmethyl]acetamide]
60 | Cn1nc(C(=O)N(CC(=O)NC2CC2)Cc2cccc(F)c2F)c2c1-c1cc(Cl)ccc1OC2 [Compound 22, 2-(1-{8-chloro-1-methyl-1H,4H-chromeno[4,3-c]pyrazol-3-yl}-N-[(2,3-difluorophenyl)methyl]formamido)-N-cyclopropylacetamide]
